Assays:
Type in all cases: in vivo
cotton aphids [1] = assay: Test Example 3: plant foot irrigation of cucumber seedling in plastic cup, cotton aphids inoculated after seven days; conditions: 144 h, read-out: Control value
Protocol: The formulations were diluted with water so that the concentration of the active ingredient became 500 ppm and thus test diluents were prepared. On the other hand, a plant foot of cucumber seedling (second true leaf development stage) planted in a plastic cup was irrigated with any one of diluents (5 ml). The seedling was kept in a green house of 25° C. for seven days. The cucumber leaves were inoculated with 30 cotton aphids (all stages) and kept in the green house for further six days. Thereafter, the number of survived cotton aphids parasitic on the cucumber leaves was counted, and the control value was calculated by the following equation. Control value(%)={1−(Cb×Tai)/(Cai×Tb)}×100 wherein each character represents the following meaning: Cb: number of insects in non-treated section before treatment Cai: number of insects in non-treated section during observation Tb: number of insects in treated section before treatment Tai: number of insects in treated section during observation

halymorpha halys = assay: Test Example 7: treated tissue paper with budding soybeans, halymorpha halys mortality; conditions: 168 h
Protocol: Formulations were prepared by the method described in Formulation Example 1 with respect to each of the active compound 13, the active compound 15, the active compound 18, the active compound 35, the active compound 37, the active compound 44, the active compound 65, the active compound 68 and the active compound 82. The formulations were diluted with water so that the concentration of the active ingredient became 100 ppm and thus test diluents were prepared.
On the other hand, a tissue paper placed in an aluminum cup was irrigated with any one of the above-mentioned diluents (5 ml). The tissue paper was placed in a polyethylene cup together with three budding soybeans. In the polyethylene cup, ten halymorpha halys were released, and the polyethylene cup was lidded by a polyethylene lid. Seven days after the releasing of the insects, the number of survived insects was counted, and the mortality was calculated by the following equation. Mortality(%)=(number of dead insects/number of insects to be tested)×100

rice brown planthopper [2] = assay: Test Example 5: test diluent scattered on rice plant seedling, rice brown planthopper released; conditions: Nilaparvata lugens, 144 h, read-out: Control value
Protocol: The formulations were diluted with water so that the concentration of the active ingredient became 500 ppm and thus test diluents were prepared. On the other hand, to a rice plant seedling (two weeks after seeding, second leaf development stage) planted in a plastic cup, any one of the diluents (10 ml) was scattered. After the drug solution scattered on the rice plant was dried, 30 first-instars of rice brown planthopper were released on the rice plant, which was kept in the green house at 25° C. for six days. Thereafter, the number of rice brown planthopper parasitic on rice plant was counted and the control value was calculated by the following equation. Control value(%)={1−(Cb×Tai)/(Cai×Tb)}×100 wherein each character represents the following meaning: Cb: number of insects in non-treated section before treatment Cai: number of insects in non-treated section during observation Tb: number of insects in treated section before treatment Tai: number of insects in treated section during observation

cotton aphids [3] = assay: Test Example 2: plant foot irrigation of cucumber seedling in urethane mat, cotton aphids inoculated one day after treatment; conditions: 168 h, read-out: Control value
Outline: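 Cucumber seedlings at second true-leaf stage in urethane mat were foot-irrigated with 500 ppm active ingredient dilution. Leaves were inoculated with 30 cotton aphids (all stages) one day after treatment. Survivors counted seven days later, and control value (%) was calculated against the non-treated section using pre- and post-treatment insect counts.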

[4] = tested on: cotton aphids (Aphis gossypii Glover); assay: Test Example 1: test diluent scattered on cucumber seedling inoculated with cotton aphids; conditions: 120 h, read-out: Control value
Outline: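 Cucumber seedlings at second true leaf stage, infested with about 30 cotton aphids one day before, were sprayed with 10 ml of diluent at 500 ppm active ingredient. Survivors counted 5 days later; control value (%) from treated versus untreated counts before and after treatment.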

tobacco whitefly = assay: Test Example 4: test diluent scattered on tomato seedling with hatched tobacco whitefly larvae; conditions: 168 h, read-out: Control value
Outline: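 Tomato seedlings carried whitefly larvae hatched from a 24 h egg lay and were sprayed with 500 ppm active ingredient. After seven days at 25° C, surviving larvae were counted. Control value (%) was calculated against untreated plants, corrected for pre-treatment counts.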

rice brown planthopper [5] = assay: Test Example 6: plant foot irrigation of rice plant seedling, rice brown planthopper released after seven days; conditions: Nilaparvata lugens, 144 h, read-out: Control value
Outline: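 Two-week-old rice seedlings (second-leaf stage) had the plant foot irrigated with 5 ml of 500 ppm active ingredient, kept 7 days at 25° C, then infested with thirty first-instar brown planthoppers. Survivors counted after six more days at 25° C; control value (%) computed by Henderson–Tilton-type formula versus untreated.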

cotton aphids [6] = assay: Test Example 8 and Comparative Test Example: 200 ppm diluent scattered on cucumber seedling inoculated with cotton aphids; conditions: 200 ppm active ingredient, 10 ml scattered on cucumber seedling, counted five days after scattering

| SMILES | pest or weed control at 500 ppm (cotton aphids [1]) [%] | mortality at 100 ppm (halymorpha halys) [%] | pest or weed control at 500 ppm (rice brown planthopper [2]) [%] | pest or weed control at 500 ppm (cotton aphids [3]) [%] | pest or weed control at 500 ppm [4] [%] | pest or weed control at 500 ppm (tobacco whitefly) [%] | pest or weed control at 500 ppm (rice brown planthopper [5]) [%] | Control value (cotton aphids [6]) |
| --- | --- | --- | --- | --- | --- | --- | --- | --- |
| FC(F)(F)c1ccc2oc(-c3ccncc3)nc2c1 [active compound 13, 2-(pyridin-4-yl)-5-(trifluoromethyl)benzoxazole] | ≥ 90 | ≥ 80 |  |  |  |  |  |  |
| CCc1cnccc1-c1nc2cc(C(F)(F)F)ccc2o1 [active compound 35, 2-(3-ethylpyridin-4-yl)-5-(trifluoromethyl)benzoxazole] |  | ≥ 80 | ≥ 90 | ≥ 90 | ≥ 90 | ≥ 90 | ≥ 90 |  |
| COc1cnccc1-c1nc2cc(C(F)(F)F)ccc2o1 [active compound 37, 2-(3-methoxypyridin-4-yl)-5-(trifluoromethyl)benzoxazole] | ≥ 90 | ≥ 80 |  | ≥ 90 | ≥ 90 | ≥ 90 | ≥ 90 |  |
| c1ccc2oc(-c3ccncc3)nc2c1 [comparative compound (B)] |  |  |  |  |  |  |  | less than 30% |

Source: patent publication US8445522B2, “Substituted 2-(4-pyridyl)benzoxazoles, and compositions thereof, for use in arthropod pest control” (Sumitomo Chemical Company, Limited, priority 2009, dated 2013)
